What was measured:
[1] = test system: female subjects experiencing Vasomotor Symptoms (VMS); test: Phase Ib study: frequency of vasomotor symptoms (VMS); format: in vivo, human; design: key to Mean observed value in VMS frequency (moderate and severe VMS): moderate + severe VMS events per day
Text: (§1) Study Design: This was a Phase Ib, randomized, double blind, placebo controlled study. The study design is illustrated in FIG. 2. Following the initial Screening visit, eligible subjects was given an actigraphy event monitor (watch) to record episodes of flashing as Vasomotor symptoms (VMS) events during a period of 2 weeks during Screening, in order to confirm VMS eligibility criteria (>7 VMS/day on average during 2 weeks). Subjects may be required to return to the site during the Screening period to read or exchange the actigraphy event monitor. Subjects deemed eligible following review of VMS data were invited to attend the Clinical research unit (CRU) for one residential period of 16 days duration, including 14 days of Investigational Medicinal Product (IMP) administration. Subjects were admitted to the CRU 1 day prior to dosing (Day −1). No medication was administered on Day −1. On Day 1, subjects who meet the study eligibility criteria were randomized to receive one dose level of either Compound A (6 subjects) or a matching placebo (2 subjects) in a double-blind manner. Randomized treatment was administered once nightly, starting on Day 1, for a total duration of 14 days.
Fifty (50) mg of Compound A was administered to the female subjects experiencing Vasomotor Symptoms (VMS), and as the above-mentioned assessments, a Frequency of VMS and a Core body temperature assessment were examined.
Here a moderate VMS and a severe VMS were counted as a VMS frequency.

naive SD rats = test: Evaluation of TRPM8 antagonist on core body (rectal) temperature in rats; format: in vivo
Experimental: Methods: Compound A (0.3 and 3 mg/kg) or vehicle was orally administered to naive SD rats (n=6). Rectal temperature was measured before, 1, 2, 3 and 6 hours after administration. AUC for 0 to 6 hours was calculated and statistically analyzed.

[2] = test system: female subjects experiencing Vasomotor Symptoms (VMS); test: Phase Ib study: core body temperature assessment; format: in vivo, human; conditions: 50 mg; within 24 hours post-dose on Visit Day 1, 7, 10 or 14, FIG. 4
Text: as §1, with “days. […]” for “days.”

O=C(O)c1ccc(S(=O)(=O)N(Cc2ccc(OC(F)(F)F)cc2)c2ncc3ccccc3c2C2CC2)cc1 [Compound A, 4-({(4-cyclopropylisoquinolin-3-yl)[4-(trifluoromethoxy)benzyl]amino}sulfonyl)benzoic acid]
Effect on frequency of VMS versus placebo ([1]; 50 mg once nightly, 14 days, FIG. 3): reduced the frequency of VMS significantly | Onset of the reduction effect of VMS frequency ([1]; 50 mg once nightly, FIG. 3): the reduction effect of VMS frequency was shown at Day 2 or later | Mean observed value in VMS frequency (moderate and severe VMS) ([1]; Baseline (before dosing), 50 mg group): 11.2 | Mean observed value in VMS frequency (moderate and severe VMS) ([1]; Day 1, 50 mg once nightly): 11.7 | Mean observed value in VMS frequency (moderate and severe VMS) ([1]; Day 2, 50 mg once nightly): 6.0 | Mean observed value in VMS frequency (moderate and severe VMS) ([1]; Day 3, 50 mg once nightly): 4.7 | Mean observed value in VMS frequency (moderate and severe VMS) ([1]; Day 4, 50 mg once nightly): 4.7 | Mean observed value in VMS frequency (moderate and severe VMS) ([1]; Day 5, 50 mg once nightly): 2.7 | Mean observed value in VMS frequency (moderate and severe VMS) ([1]; Day 6, 50 mg once nightly): 2.8 | Mean observed value in VMS frequency (moderate and severe VMS) ([1]; Day 7, 50 mg once nightly): 3.0 | Mean observed value in VMS frequency (moderate and severe VMS) ([1]; Day 8, 50 mg once nightly): 3.3 | Mean observed value in VMS frequency (moderate and severe VMS) ([1]; Day 9, 50 mg once nightly): 1.3 | Mean observed value in VMS frequency (moderate and severe VMS) ([1]; Day 10, 50 mg once nightly): 3.2 | Mean observed value in VMS frequency (moderate and severe VMS) ([1]; Day 11, 50 mg once nightly): 2.8 | Mean observed value in VMS frequency (moderate and severe VMS) ([1]; Day 12, 50 mg once nightly): 2.7 | Mean observed value in VMS frequency (moderate and severe VMS) ([1]; Day 13, 50 mg once nightly): 2.3 | Mean observed value in VMS frequency (moderate and severe VMS) ([1]; Day 14, 50 mg once nightly): 2.3 | Maximum decrease in rectal temperature (amplitude) (naive SD rats; 3 mg/kg orally, at 2 hours after administration, SD rats): 0.82 °C | Rectal temperature compared to vehicle (AUC for 0 to 6 hours) (naive SD rats; 0.3 and 3 mg/kg orally, naive SD rats, P<0.01 vs vehicle, FIG. 1): significantly reduced rectal temperature | Change from baseline in core body temperature [2]: reduced the core body temperature significantly

— patent publication US10993939B2, “Compositions for treating or preventing vasomotor symptoms” (Mitsubishi Tanabe Pharma Corporation, priority 2016, dated 2021)
